The values below come from US20230060174A1, “PHARMACEUTICAL COMPOSITION OF TRICYCLIC PDE3/PDE4 DUAL INHIBITOR COMPOUND” (CHIA TAI TIANQING PHARMACEUTICAL GROUP CO., LTD., priority 2020, published 2023).

Bounds are passed on as bounds.

One data set addresses T1, recombinant human PDE4B (Homo sapiens, UniProt Q07343).
T1 construct: amino acid 305-end; GST (N); host or cells: Sf9 insect cells (baculovirus)
The data set can be described thus: In vitro inhibitory activity against PDE 4B enzyme (fluorescence polarization). The following applies: 1 μM cAMP substrate. Type of data set: biochemical. Background: Fluorescence polarisation rises when a labelled molecule tumbles more slowly, as on binding a larger partner.

For data set [1], the system named is TNF-α in human peripheral blood mononuclear cells. The data set can be described thus: Inhibitory activity against TNF-α in LPS-stimulated hPBMCs (ELISA). It counts as cell-based. The following applies: PBMC, 1 ng/mL LPS, 24 h, read-out: hPBMC IC50 (TNF-α). The text has this: Experimental Example 8: In vitro detection of the inhibitory activity of the compound against TNF-α in human peripheral blood mononuclear cells Objective: to measure the anti-inflammatory activity at cellular level of the test compound based on the level of TNF-α in human peripheral blood mononuclear cells (hPBMCs).
Procedures: • 1. Normal human whole blood was collected into an EDTA anticoagulation tube; • 2. The PBMC was separated by Ficoll density gradient centrifugation and counted, and the cell concentration was adjusted to 2×10^6 cells/mL; • 3. To each well of a U-bottom 96-well plate were added 2×10^5 cells, 1 ng/mL LPS, and solutions of the compound of formula (I) in DMSO at concentrations of […], 1 μM, 100 nM, 10 nM, 1 nM, 100 pM and 10 pM, with a system volume of 200 μL per well; • 4. The mixture was incubated for 24 h, and then the supernatant was collected; • 5. The level of TNF-α in the supernatant was detected by ELISA, an inhibition curve was fitted using Graphpad Prism software, and the IC50 was calculated.

For data set [2], the system named is cigarette smoke-induced rat acute lung injury model. Briefly: Pharmacodynamic study in cigarette smoke-induced rat acute lung injury model. It counts as in vivo, Sprague-Dawley rats. Conditions: rats, atomized 0.05 or 0.15 mg/mL for 30 min daily. The procedure: Experimental Example 7: Pharmacodynamic study in cigarette smoke-induced rat acute lung injury model
Male Sprague-Dawley rats (supplied by Shanghai SLAC Laboratory Animal Co., Ltd.), SPF grade, approximately 200 g.
Procedures • 1. Animals were randomly divided into 6 groups according to body weight after arrival and a one-week acclimation; • 2. On days 1-3 of the experiment, the corresponding compound of each group was atomized for 30 min. Then the animals in the model group and the treatment groups were exposed to cigarette smoke for 1 h, and after a 4-h interval, the animals were exposed to cigarette smoke again for 1 h. Cigarette smoke was given twice daily for 3 consecutive days. The control group animals were exposed to room air; • 3. On day 4 of the experiment, the corresponding compound of each group was atomized for 30 min, and then the animals in the model group and the treatment groups were given the atomized 150 μg/mL LPS for 15 min by inhalation. After 3 h (from the time starting atomization), the animals were exposed to cigarette smoke for 1 h, and then the lung function (Penh and F) of the animals was examined; bronchoalveolar lavage fluid (BALF) was collected for cell counting after the animals were euthanized with CO2. • 4. […]

The target of another data set is T2, CYP2C19 (Homo sapiens, UniProt P33261).
T2 construct: co-incubated with human liver microsomes; from tissue; host or cells: human liver microsomes
T2 sequence (P33261 whole entry): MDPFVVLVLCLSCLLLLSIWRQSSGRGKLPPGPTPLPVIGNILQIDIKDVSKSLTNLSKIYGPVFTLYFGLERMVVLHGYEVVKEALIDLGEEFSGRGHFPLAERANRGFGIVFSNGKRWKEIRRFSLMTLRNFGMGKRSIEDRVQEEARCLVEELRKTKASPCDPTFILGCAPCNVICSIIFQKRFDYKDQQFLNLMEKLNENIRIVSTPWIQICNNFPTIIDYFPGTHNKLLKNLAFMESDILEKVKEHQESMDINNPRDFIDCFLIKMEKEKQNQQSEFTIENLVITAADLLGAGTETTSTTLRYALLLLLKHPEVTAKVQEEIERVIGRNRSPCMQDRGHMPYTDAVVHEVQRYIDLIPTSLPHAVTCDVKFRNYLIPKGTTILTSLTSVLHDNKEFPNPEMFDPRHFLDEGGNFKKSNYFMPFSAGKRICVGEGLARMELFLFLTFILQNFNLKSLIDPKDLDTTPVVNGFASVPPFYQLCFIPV
The data set can be described thus: Inhibition of human liver microsomal CYP2C19 ((S)-mephenytoin probe). It counts as in vitro ADME. The following applies: human liver microsomes. The procedure: (§1) Experimental Example 6: Inhibitory effect on activity of isoenzymes (CYP1A2, CYP2C9, CYP2C19, CYP2D6 and CYP3A4) of human liver microsomal cytochrome P450 A total of 5 specific probe substrates of 5 isoenzymes of CYP, namely phenacetin (CYP1A2), diclofenac (CYP2C9), (S)-mephenytoin (CYP2C19), dextromethorphan (CYP2D6) and midazolam (CYP3A4) were each co-incubated with human liver microsomes and the compound of formula (I), and then reduced nicotinamide adenine dinucleotide phosphate (NADPH) was added to initiate the reaction. After the reaction was completed, the samples were treated, and the concentrations of 5 metabolites (acetaminophen, 4′-hydroxydiclofenac, 4′-hydroxymephenytoin, dextrorphan and l′-hydroxymidazolam) generated from the specific substrates were quantitatively detected by lC-MS/MS to calculate the correcnondino- half maximal inhibitory concentrationc (IC50)
A general note: Liver microsomes are a subcellular fraction often used to study metabolism.

A short description of data set [3]: Pharmacokinetic study in beagle dogs. Type of data set: in vivo. The procedure: Experimental Example 5: Pharmacokinetic study in beagle dogs In this study, male beagle dogs were selected as test animals, and LC-MS/MS was used for quantitatively measuring the drug concentration in plasma of beagle dogs at different time points after intravenous injection or intragastric administration of the compound of formula (I) so as to evaluate the pharmacokinetics of the compound of formula (I) in beagle dogs.
The clear solution of the compound of formula (I) was injected into two beagle dogs of 10-12 kg via the cephalic vein or saphenous vein, and the clear solution of the compound of formula (I) was administered intragastrically to two beagle dogs of 10-12 kg (overnight fasted). The animals were all subjected to approximately […] blood collection each time from peripheral veins at 0.0333, 0.0833, 0.25, 0.5, 1, 2, 4, 6, 8 and 24 h post-dose, and the blood was transferred into commercial centrifuge tubes containing 0.85-1.15 mg of K2 EDTA.2H20 anticoagulant, and plasma was separated by centrifugation at 3000 g for 10 min at 4° C. The plasma concentration was measured by LC-MS/MS, and the relevant pharmacokinetic parameters were calculated using WinNonlinTM Version 6.3 (Pharsight, Mountain View, Calif.), a pharmacokinetic software, with a non-compartmental model linear-log trapezoidal method.

The next data set has as its target T3, CYP3A4 (Homo sapiens, UniProt P08684).
T3 construct: co-incubated with human liver microsomes; from tissue; host or cells: human liver microsomes
Briefly: Inhibition of human liver microsomal CYP3A4 (midazolam probe). It counts as in vitro ADME. Conditions: human liver microsomes. The procedure:
as §1

Setting [4] is: intragastric administration 3 mg/kg.

T3 sequence (P08684 whole entry): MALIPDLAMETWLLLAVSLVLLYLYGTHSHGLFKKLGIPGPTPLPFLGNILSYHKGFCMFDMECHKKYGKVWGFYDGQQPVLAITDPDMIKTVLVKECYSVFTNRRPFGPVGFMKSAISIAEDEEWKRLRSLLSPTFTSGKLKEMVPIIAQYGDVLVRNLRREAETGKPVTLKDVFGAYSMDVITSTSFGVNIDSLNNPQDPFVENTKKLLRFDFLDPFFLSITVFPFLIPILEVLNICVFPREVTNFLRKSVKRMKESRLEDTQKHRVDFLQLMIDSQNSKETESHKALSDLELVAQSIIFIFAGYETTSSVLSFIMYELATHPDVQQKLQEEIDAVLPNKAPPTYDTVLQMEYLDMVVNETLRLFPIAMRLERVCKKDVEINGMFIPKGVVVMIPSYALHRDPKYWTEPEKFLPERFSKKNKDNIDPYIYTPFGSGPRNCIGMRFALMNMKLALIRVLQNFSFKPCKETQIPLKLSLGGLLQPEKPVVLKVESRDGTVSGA
T1 sequence (Q07343 305-736 limits assumed): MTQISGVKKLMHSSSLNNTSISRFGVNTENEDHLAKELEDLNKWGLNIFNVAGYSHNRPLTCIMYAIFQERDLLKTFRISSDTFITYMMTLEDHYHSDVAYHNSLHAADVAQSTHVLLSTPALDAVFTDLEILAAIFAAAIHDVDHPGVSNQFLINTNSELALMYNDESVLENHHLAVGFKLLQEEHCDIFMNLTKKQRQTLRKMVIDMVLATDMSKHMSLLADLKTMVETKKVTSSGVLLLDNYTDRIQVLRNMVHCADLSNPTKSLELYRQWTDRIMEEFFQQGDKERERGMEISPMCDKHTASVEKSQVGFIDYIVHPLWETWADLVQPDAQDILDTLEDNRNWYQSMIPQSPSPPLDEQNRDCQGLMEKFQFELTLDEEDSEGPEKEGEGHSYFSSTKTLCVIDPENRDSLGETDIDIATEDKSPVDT

One may read the IC50 as the concentration that inhibits the measured activity by half. `CCOc1cc2c(cc1OC)-c1c/c(=N\c3c(C)cc(C)cc3C)n(CCNC(=O)c3c(O)nnn3C)c(=O)n1CC2` [Compound of formula (I)]: the IC50 at recombinant human PDE4B is 0.00041 µM; in data set [1], 0.0292 µM; at CYP2C19, at least 50 µM; against CYP3A4, at least 50 µM. Moreover, the “Number of white blood cells in the bronchoalveolar lavage fluid” value in data set [2] (FIG. 5) is reported as “effectively reduce”. Besides, the “Airway resistance index Penh (Mch challenge pulmonary function test)” value in data set [2] (FIG. 6) is given as “effectively reduce”. Moreover, the figures for the “Area under plasma concentration-time curve (0-inf)” value in data set [3] (setting [4]) and in data set [3] (intravenous injection 0.5 mg/kg) were 123 nM·h and 210 nM·h, respectively. This compound showed a Peak concentration in data set [3] (setting [4]) of 59.4 nM. For the same compound, the Time to peak in data set [3] (setting [4]) stood at 0.6 h.
